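Where inhibition never reached the appropriate level, the endpoint shown equals the highest concentration tested. Otherwise, values were interpolated linearly from a five-concentration, 48-hour dose response in 96-well plates. Here, GI50 denotes the concentration required for 50% inhibition of growth. Definition used: TGI = concentration required for complete inhibition of growth.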
Key:
Test in all cases: NCI tumour cell line growth inhibition, 48 h
HT29 colon = tested on: HT29 colon
NCI-H460 lung = tested on: NCI-H460 lung
MDA-MB-231 breast = tested on: MDA-MB-231 breast
U251 CNS = tested on: U251 CNS
SK-MEL-5 melanoma = tested on: SK-MEL-5 melanoma
A498 renal = tested on: A498 renal
PC-3 prostate = tested on: PC-3 prostate
SR leukemia = tested on: SR leukemia
K-562 leukemia = tested on: K-562 leukemia
M14 melanoma = tested on: M14 melanoma
SNB-19 CNS = tested on: SNB-19 CNS
OVCAR-8 ovarian = tested on: OVCAR-8 ovarian
COLO 205 colon = tested on: COLO 205 colon
SF-268 CNS = tested on: SF-268 CNS
HCT-15 colon = tested on: HCT-15 colon
HL-60(TB) leukemia = tested on: HL-60(TB) leukemia
BT-549 breast = tested on: BT-549 breast
SF-539 CNS = tested on: SF-539 CNS
UACC-257 melanoma = tested on: UACC-257 melanoma
LOX IMVI melanoma = tested on: LOX IMVI melanoma
SK-MEL-2 melanoma = tested on: SK-MEL-2 melanoma
TK-10 renal = tested on: TK-10 renal
HS 578T breast = tested on: HS 578T breast
786-0 renal = tested on: 786-0 renal
HCC-2998 colon = tested on: HCC-2998 colon
EKVX NSCLC = tested on: EKVX NSCLC
A549 NSCLC = tested on: A549 NSCLC
OVCAR-5 ovarian = tested on: OVCAR-5 ovarian
SW-620 colon = tested on: SW-620 colon
ACHN renal = tested on: ACHN renal
NCI-H522 lung = tested on: NCI-H522 lung
RXF 393 renal = tested on: RXF 393 renal
MALME-3M melanoma = tested on: MALME-3M melanoma
CCRF-CEM leukemia = tested on: CCRF-CEM leukemia
OVCAR-3 ovarian = tested on: OVCAR-3 ovarian
DU-145 prostate = tested on: DU-145 prostate
HOP-92 NSCLC = tested on: HOP-92 NSCLC
KM12 colon = tested on: KM12 colon
HCT-116 colon = tested on: HCT-116 colon
IGROV1 ovarian = tested on: IGROV1 ovarian
NCI-H226 lung = tested on: NCI-H226 lung
MCF7 breast = tested on: MCF7 breast
SK-MEL-28 melanoma = tested on: SK-MEL-28 melanoma
UO-31 renal = tested on: UO-31 renal
NCI-H23 lung = tested on: NCI-H23 lung
NCI/ADR-RES ovarian = tested on: NCI/ADR-RES ovarian
RPMI-8226 leukemia = tested on: RPMI-8226 leukemia
T-47D breast = tested on: T-47D breast
SN12C renal = tested on: SN12C renal
CAKI-1 renal = tested on: CAKI-1 renal
SNB-75 CNS = tested on: SNB-75 CNS
SK-OV-3 ovarian = tested on: SK-OV-3 ovarian

SMILES: CO[C@]12C=C/C(=C(/C(=O)OCc3cccnc3)C(=O)CCCCCCCC[C@@]3(OC)C=C/C(=C(/C(=O)OCc4cccnc4)C(=O)CCCCCCCC1)O3)O2
- GI50 (HT29 colon): 1700 nM
- TGI (HT29 colon): > 50000 nM
- GI50 (NCI-H460 lung): 1270 nM
- TGI (NCI-H460 lung): 3160 nM
- GI50 (MDA-MB-231 breast): 2250 nM
- TGI (MDA-MB-231 breast): > 50000 nM
- GI50 (U251 CNS): 1660 nM
- TGI (U251 CNS): 8580 nM
- GI50 (SK-MEL-5 melanoma): 856 nM
- TGI (SK-MEL-5 melanoma): 1640 nM
- GI50 (A498 renal): 2040 nM
- TGI (A498 renal): 6570 nM
- GI50 (PC-3 prostate): 1740 nM
- TGI (PC-3 prostate): > 50000 nM
- GI50 (SR leukemia): 1120 nM
- TGI (SR leukemia): > 50000 nM
- GI50 (K-562 leukemia): 1460 nM
- TGI (K-562 leukemia): > 50000 nM
- GI50 (M14 melanoma): 1200 nM
- TGI (M14 melanoma): 3790 nM
- GI50 (SNB-19 CNS): 3030 nM
- TGI (SNB-19 CNS): > 50000 nM
- GI50 (OVCAR-8 ovarian): 959 nM
- TGI (OVCAR-8 ovarian): > 50000 nM
- GI50 (COLO 205 colon): 1490 nM
- TGI (COLO 205 colon): 5060 nM
- GI50 (SF-268 CNS): 1470 nM
- TGI (SF-268 CNS): 6530 nM
- GI50 (HCT-15 colon): 1040 nM
- TGI (HCT-15 colon): 2820 nM
- GI50 (HL-60(TB) leukemia): 1370 nM
- TGI (HL-60(TB) leukemia): 4250 nM
- GI50 (BT-549 breast): 1510 nM
- TGI (BT-549 breast): 4290 nM
- GI50 (SF-539 CNS): 1640 nM
- TGI (SF-539 CNS): 7910 nM
- GI50 (UACC-257 melanoma): 2010 nM
- TGI (UACC-257 melanoma): 20100 nM
- GI50 (LOX IMVI melanoma): 585 nM
- TGI (LOX IMVI melanoma): 1600 nM
- GI50 (SK-MEL-2 melanoma): 1340 nM
- TGI (SK-MEL-2 melanoma): 4000 nM
- GI50 (TK-10 renal): 2930 nM
- TGI (TK-10 renal): 18900 nM
- GI50 (HS 578T breast): 2080 nM
- TGI (HS 578T breast): > 50000 nM
- GI50 (786-0 renal): 1320 nM
- TGI (786-0 renal): 4710 nM
- GI50 (HCC-2998 colon): 979 nM
- TGI (HCC-2998 colon): 1840 nM
- GI50 (EKVX NSCLC): 1970 nM
- TGI (EKVX NSCLC): > 50000 nM
- GI50 (A549 NSCLC): 1650 nM
- TGI (A549 NSCLC): 9200 nM
- GI50 (OVCAR-5 ovarian): 1990 nM
- TGI (OVCAR-5 ovarian): 15500 nM
- GI50 (SW-620 colon): 1620 nM
- TGI (SW-620 colon): 6750 nM
- GI50 (ACHN renal): 1300 nM
- TGI (ACHN renal): > 50000 nM
- GI50 (NCI-H522 lung): 1050 nM
- TGI (NCI-H522 lung): 2850 nM
- GI50 (RXF 393 renal): 915 nM
- TGI (RXF 393 renal): 1700 nM
- GI50 (MALME-3M melanoma): 1110 nM
- TGI (MALME-3M melanoma): 3700 nM
- GI50 (CCRF-CEM leukemia): 741 nM
- TGI (CCRF-CEM leukemia): 7800 nM
- GI50 (OVCAR-3 ovarian): 1160 nM
- TGI (OVCAR-3 ovarian): 3840 nM
- GI50 (DU-145 prostate): 1760 nM
- TGI (DU-145 prostate): 12700 nM
- GI50 (HOP-92 NSCLC): 1860 nM
- TGI (HOP-92 NSCLC): 4830 nM
- GI50 (KM12 colon): 1030 nM
- TGI (KM12 colon): 2380 nM
- GI50 (HCT-116 colon): 275 nM
- TGI (HCT-116 colon): 1220 nM
- GI50 (IGROV1 ovarian): 1750 nM
- TGI (IGROV1 ovarian): 14700 nM
- GI50 (NCI-H226 lung): 1020 nM
- TGI (NCI-H226 lung): 1940 nM
- GI50 (MCF7 breast): 504 nM
- TGI (MCF7 breast): 8890 nM
- GI50 (SK-MEL-28 melanoma): 1370 nM
- TGI (SK-MEL-28 melanoma): 6450 nM
- GI50 (UO-31 renal): 1210 nM
- TGI (UO-31 renal): 4340 nM
- GI50 (NCI-H23 lung): 790 nM
- TGI (NCI-H23 lung): 1870 nM
- GI50 (NCI/ADR-RES ovarian): 1560 nM
- TGI (NCI/ADR-RES ovarian): > 50000 nM
- GI50 (RPMI-8226 leukemia): 1090 nM
- TGI (RPMI-8226 leukemia): 5870 nM
- GI50 (T-47D breast): 2210 nM
- TGI (T-47D breast): > 50000 nM
- GI50 (SN12C renal): 1840 nM
- TGI (SN12C renal): 34200 nM
- GI50 (CAKI-1 renal): 1890 nM
- TGI (CAKI-1 renal): > 50000 nM
- GI50 (SNB-75 CNS): 1180 nM
- TGI (SNB-75 CNS): 4050 nM
- GI50 (SK-OV-3 ovarian): 2430 nM
- TGI (SK-OV-3 ovarian): > 50000 nM

— PubChem BioAssay (NCI)
